Where a name gives a salt, the structure may show the parent alone.
Biological target: S1P1 (Homo sapiens, UniProt P21453)
Assay: 35S-GTPyS binding assay (membranes)
Format: biochemical
Details: compound 0.1nM-10µM, 0.1nM 35S-GTPyS, 10µM S1P as 100% maximum efficacy, 90 min at room temperature
Procedure: The effect of the compounds was measured using a 35S-GTPyS binding assay. Briefly, membranes were incubated in a buffer containing 20 mM HEPES pH 7.4, 100 mM NaCl, 10 mM MgCl2, 10µM GDP, 50µg/ml saponin and 0.2% fatty acid-free BSA at various concentrations (0.1nM-10µM) and 0.1nM 35S-GTPyS. 10µM S1P was used as 100% maximum efficacy. The assay was incubated for 90 min at room temperature with gentle mixing, and terminated by filtrating the reaction mixture through GF/C filter plates using the Manifold Filtration System. The filters were immediately washed with sodium phosphate pH 7.4 buffer. After drying the filter plates scintillant liquid were added to each well and 35S-GTPyS binding was measured on a Trilux Scintillation Counter.

Chain of S1P1 (P21453 whole entry, species assumed): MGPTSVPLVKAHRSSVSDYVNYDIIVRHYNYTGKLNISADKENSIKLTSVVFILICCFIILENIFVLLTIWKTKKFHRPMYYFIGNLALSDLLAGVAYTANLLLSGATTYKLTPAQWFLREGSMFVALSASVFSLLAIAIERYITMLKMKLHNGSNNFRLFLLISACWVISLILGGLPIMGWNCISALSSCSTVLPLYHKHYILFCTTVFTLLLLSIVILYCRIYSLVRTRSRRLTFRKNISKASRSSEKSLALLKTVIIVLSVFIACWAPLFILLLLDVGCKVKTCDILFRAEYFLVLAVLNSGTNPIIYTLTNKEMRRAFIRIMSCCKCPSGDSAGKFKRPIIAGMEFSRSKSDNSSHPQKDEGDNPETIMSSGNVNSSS

Row | Structure (SMILES) | EC50
1 | CCCCN(C(=O)c1ccccc1F)c1nnc(-c2cc(C)c(OCCNCCn3cncn3)c(C)c2)s1 [Example 31, N-butyl-N-{5-[3,5-dimethyl-4-(2-{[2-(1H-1,2,4-triazol-1-yl)ethyl]amino}ethoxy)-phenyl]-1,3,4-thiadiazol-2-yl}-2-fluorobenzamide] | 4.1 nM
2 | CCCCN(C(=O)c1ccccc1F)c1nnc(-c2cc(C)c(OCCN(C)CCO)c(C)c2)s1 [Example 57, N-butyl-2-fluoro-N-[5-(4-{2-[(2-hydroxyethyl)(methyl)amino]ethoxy}-3,5-dimethylphenyl)-1,3,4-thiadiazol-2-yl]benzamide] | 8.5 nM
3 | CCCCN(C(=O)c1ccccc1F)c1nnc(-c2cc(C)c(OCCNCCc3nn[nH]n3)c(C)c2)s1 [Example 12, N-butyl-N-{5-[3,5-dimethyl-4-(2-{[2-(2H-tetrazol-5-yl)ethyl]amino}ethoxy)phenyl]-1,3,4-thiadiazol-2-yl}-2-fluorobenzamide] | 0.4 nM
4 | CCCCN(C(=O)c1ccccc1F)c1nnc(-c2ccc(CN3CC(c4nnn[nH]4)C3)cc2)s1 [Example 30, N-butyl-2-fluoro-N-[5-(4-{[3-(1H-tetrazol-5-yl)azetidin-1-yl]methyl}phenyl)-1,3,4-thiadiazol-2-yl]benzamide] | 2.3 nM
5 | Cc1cc(-c2nnc(N(CC3CC3)C(=O)c3ccccc3Cl)s2)cc(C)c1OCCN1CCC(CC(=O)O)CC1 [Example 23, {1-[2-(4-{5-[(2-chlorobenzoyl)(cyclopropylmethyl)amino]-1,3,4-thiadiazol-2-yl}-2,6-dimethylphenoxy)ethyl]piperidin-4-yl}acetic acid hydrochloride] | 4.1 nM
6 | CCCCN(C(=O)Nc1ccccc1)c1nnc(-c2ccc(CN3CC(C(=O)O)C3)cc2)s1 [Example 40, 1-(4-{5-[(anilinocarbonyl)(butyl)amino]-1,3,4-thiadiazol-2-yl}benzyl)azetidine-3-carboxylic acid] | 70 nM
7 | CCCCN(C(=O)c1ccccc1F)c1nnc(-c2ccc(CNCCO)cc2)s1 [Example 36, N-butyl-2-fluoro-N-[5-(4-{[(2-hydroxyethyl)amino]methyl}phenyl)-1,3,4-thiadiazol-2-yl]benzamide, formate salt] | 40 nM
8 | CCCCN(C(=O)c1ccccc1F)c1nnc(-c2cc(C)c(OCCN3CC(C(=O)O)C3)c(C)c2)s1 [Example 1, 1-[2-(4-{5-[Butyl(2-fluorobenzoyl)amino]-1,3,4-thiadiazol-2-yl}-2,6-dimethylphenoxy)ethyl]azetidine-3-carboxylic acid] | 2.5 nM
